From the supplement of paper PMC10627819

What was measured:
S. aureus DSM 20231 [1] = experiment: fitness (endpoint OD595 vs no drug) (fraction); higher = more growth
Summary of the method: (§1)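 Volumes were 30 µl per well, or 55 µl for S. pneumoniae, in 384-well plates inoculated at OD595 0.01. Media were TSB, LB Lennox or CY at 37 °C, and OD595 was read every 30 min for 14 h with first-reading background subtraction. Fitness is the ratio of optical density at stationary-phase entry to the robust mean of no-drug controls. That ratio is capped at 1.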

B. subtilis 168 [2] = experiment: as above
Summary of the method: as §1

S. aureus Newman [3] = experiment: as above
Summary of the method: as §1

S. pneumoniae D39V [4] = experiment: as above
Summary of the method: as §1

S. aureus DSM 20231 [5] = experiment: Bliss interaction score (quartile over a dose matrix) (fitness difference); higher = more antagonism (negative = synergy)
Summary of the method: (§2)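 Each OD595 reading at entry into stationary phase was scaled to the robust mean of the untreated wells on its plate, with a ceiling of 1. These ratios define fitness, and single-drug fitness was inferred from combinations. The Bliss score compares observed fitness with the product-based expectation and is reported as quartiles across all replicate types, technical, biological and donor/recipient.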

B. subtilis 168 [6] = experiment: as above
Summary of the method: as §2

S. aureus Newman [7] = experiment: as above
Summary of the method: as §2

S. pneumoniae D39V [8] = experiment: as above
Summary of the method: as §2
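Throughout, for Bliss interaction score (quartile over a dose matrix): first quartile when negative (synergy) and third quartile when positive (antagonism).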

CCCCCCCCCC(=O)N[C@@H](Cc1c[nH]c2ccccc12)C(=O)N[C@H](CC(N)=O)C(=O)N[C@@H](CC(=O)O)C(=O)N[C@@H]1C(=O)NCC(=O)N[C@@H](CCCN)C(=O)N[C@@H](CC(=O)O)C(=O)N[C@H](C)C(=O)N[C@@H](CC(=O)O)C(=O)NCC(=O)N[C@H](CO)C(=O)N[C@@H]([C@H](C)CC(=O)O)C(=O)N[C@@H](CC(=O)c2ccccc2N)C(=O)O[C@@H]1C [Daptomycin] + CN(N=O)C(=O)N[C@@H](C=O)[C@@H](O)[C@H](O)[C@H](O)CO [Streptozotocin]
fitness, one replicate
Settings	partner 0.15 µg/mL	partner 0.3 µg/mL	partner 0.6 µg/mL
B. subtilis 168 [2], first compound 0.125 µg/mL	0.889	0.968	0.935
B. subtilis 168 [2], first compound 1 µg/mL	0.658	0.674	0.669
S. aureus DSM 20231 [1], first compound 0.125 µg/mL	0.795	0.761	0.645
S. aureus DSM 20231 [1], first compound 0.25 µg/mL	0.883	0.764	0.656

fitness
Settings	partner 0.15 µg/mL	partner 0.3 µg/mL	partner 0.6 µg/mL	partner 1.2 µg/mL	partner 2.4 µg/mL	partner 4.8 µg/mL
B. subtilis 168 [2], first compound 0.25 µg/mL	0.89	0.914	0.969	–	–	–
B. subtilis 168 [2], first compound 0.5 µg/mL	0.835	0.761	0.768	–	–	–
S. aureus DSM 20231 [1], first compound 0.5 µg/mL	0.817	0.778	0.732	–	–	–
S. aureus DSM 20231 [1], first compound 1 µg/mL	0.93	0.799	0.744	–	–	–
S. aureus DSM 20231 [1], first compound 2 µg/mL	0.871	0.818	0.748	–	–	–
S. aureus Newman [3], first compound 0.125 µg/mL	0.945	0.805	0.636	–	–	–
S. aureus Newman [3], first compound 0.25 µg/mL	0.957	0.855	0.594	–	–	–
S. aureus Newman [3], first compound 0.5 µg/mL	0.969	0.807	0.627	–	–	–
S. pneumoniae D39V [4], first compound 1 µg/mL	–	–	–	0.94	0.939	0.918
S. pneumoniae D39V [4], first compound 2 µg/mL	–	–	–	0.935	0.95	0.884
S. pneumoniae D39V [4], first compound 4 µg/mL	–	–	–	0.968	0.942	0.923

Settings	Bliss interaction score
B. subtilis 168 [6]	-0.0562
S. aureus DSM 20231 [5]	0.0436
S. aureus Newman [7]	0.0468
S. pneumoniae D39V [8]	0.0898

CCCCCCCCCC(=O)N[C@@H](Cc1c[nH]c2ccccc12)C(=O)N[C@H](CC(N)=O)C(=O)N[C@@H](CC(=O)O)C(=O)N[C@@H]1C(=O)NCC(=O)N[C@@H](CCCN)C(=O)N[C@@H](CC(=O)O)C(=O)N[C@H](C)C(=O)N[C@@H](CC(=O)O)C(=O)NCC(=O)N[C@H](CO)C(=O)N[C@@H]([C@H](C)CC(=O)O)C(=O)N[C@@H](CC(=O)c2ccccc2N)C(=O)O[C@@H]1C [Daptomycin] + CN[C@H](CC(C)C)C(=O)N[C@H]1C(=O)N[C@@H](CC(N)=O)C(=O)N[C@H]2C(=O)N[C@H]3C(=O)N[C@H](C(=O)N[C@H](C(=O)O)c4cc(O)cc(O)c4-c4cc3ccc4O)[C@H](O)c3ccc(c(Cl)c3)Oc3cc2cc(c3O[C@@H]2O[C@H](CO)[C@@H](O)[C@H](O)[C@H]2O[C@H]2C[C@](C)(N)[C@H](O)[C@H](C)O2)Oc2ccc(cc2Cl)[C@H]1O [Vancomycin]
fitness, S. aureus DSM 20231 [1], one replicate
Settings	partner 0.1875 µg/mL	partner 0.375 µg/mL	partner 0.75 µg/mL
first compound 0.125 µg/mL	0.901	≥ 1	≥ 1
first compound 0.25 µg/mL	0.853	≥ 1	≥ 1

Settings	fitness
S. aureus DSM 20231 [1], first compound 0.5 µg/mL, partner 0.1875 µg/mL	≥ 1
S. aureus DSM 20231 [1], first compound 0.5 µg/mL, partner 0.375 µg/mL	≥ 1
S. aureus DSM 20231 [1], first compound 0.5 µg/mL, partner 0.75 µg/mL	≥ 1
S. aureus DSM 20231 [1], first compound 1 µg/mL, partner 0.1875 µg/mL	≥ 1
S. aureus DSM 20231 [1], first compound 1 µg/mL, partner 0.375 µg/mL	≥ 1
S. aureus DSM 20231 [1], first compound 1 µg/mL, partner 0.75 µg/mL	≥ 1
S. aureus DSM 20231 [1], first compound 2 µg/mL, partner 0.1875 µg/mL	0.906
S. aureus DSM 20231 [1], first compound 2 µg/mL, partner 0.375 µg/mL	0.975
S. aureus DSM 20231 [1], first compound 2 µg/mL, partner 0.75 µg/mL	0.935
S. aureus Newman [3], first compound 0.125 µg/mL, partner 0.1875 µg/mL	≥ 1
S. aureus Newman [3], first compound 0.125 µg/mL, partner 0.375 µg/mL	≥ 1
S. aureus Newman [3], first compound 0.125 µg/mL, partner 0.75 µg/mL	0.973
S. aureus Newman [3], first compound 0.25 µg/mL, partner 0.1875 µg/mL	≥ 1
S. aureus Newman [3], first compound 0.25 µg/mL, partner 0.375 µg/mL	0.998
S. aureus Newman [3], first compound 0.25 µg/mL, partner 0.75 µg/mL	0.985
S. aureus Newman [3], first compound 0.5 µg/mL, partner 0.1875 µg/mL	0.988
S. aureus Newman [3], first compound 0.5 µg/mL, partner 0.375 µg/mL	≥ 1
S. aureus Newman [3], first compound 0.5 µg/mL, partner 0.75 µg/mL	0.952
S. pneumoniae D39V [4], first compound 1 µg/mL, partner 0.03125 µg/mL	0.921
S. pneumoniae D39V [4], first compound 1 µg/mL, partner 0.0625 µg/mL	0.841
S. pneumoniae D39V [4], first compound 1 µg/mL, partner 0.25 µg/mL	0.116
S. pneumoniae D39V [4], first compound 1 µg/mL, partner 0.5 µg/mL	0.0905
S. pneumoniae D39V [4], first compound 2 µg/mL, partner 0.03125 µg/mL	0.915
S. pneumoniae D39V [4], first compound 2 µg/mL, partner 0.0625 µg/mL	0.885
S. pneumoniae D39V [4], first compound 2 µg/mL, partner 0.125 µg/mL	0.915
S. pneumoniae D39V [4], first compound 2 µg/mL, partner 0.25 µg/mL	0.103
S. pneumoniae D39V [4], first compound 2 µg/mL, partner 0.5 µg/mL	0.094
S. pneumoniae D39V [4], first compound 4 µg/mL, partner 0.03125 µg/mL	0.938
S. pneumoniae D39V [4], first compound 4 µg/mL, partner 0.0625 µg/mL	0.898
S. pneumoniae D39V [4], first compound 4 µg/mL, partner 0.125 µg/mL	0.904
S. pneumoniae D39V [4], first compound 4 µg/mL, partner 0.25 µg/mL	0.184
S. pneumoniae D39V [4], first compound 4 µg/mL, partner 0.5 µg/mL	0.0719

Settings	Bliss interaction score
B. subtilis 168 [6]	0.0914
S. aureus DSM 20231 [5]	0.05
S. aureus Newman [7]	0.0383
S. pneumoniae D39V [8]	0.0724

CCCCCCCCCC(=O)N[C@@H](Cc1c[nH]c2ccccc12)C(=O)N[C@H](CC(N)=O)C(=O)N[C@@H](CC(=O)O)C(=O)N[C@@H]1C(=O)NCC(=O)N[C@@H](CCCN)C(=O)N[C@@H](CC(=O)O)C(=O)N[C@H](C)C(=O)N[C@@H](CC(=O)O)C(=O)NCC(=O)N[C@H](CO)C(=O)N[C@@H]([C@H](C)CC(=O)O)C(=O)N[C@@H](CC(=O)c2ccccc2N)C(=O)O[C@@H]1C [Daptomycin] + Cn1nnc(-c2ccc(-c3ccc(N4C[C@H](CO)OC4=O)cc3F)cn2)n1 [Tedizolid]
fitness, S. aureus DSM 20231 [1], one replicate
Settings	partner 0.0625 µg/mL	partner 0.125 µg/mL	partner 0.25 µg/mL
first compound 0.125 µg/mL	0.918	0.765	0.354
first compound 0.25 µg/mL	0.894	0.762	0.375

fitness
Settings	partner 0.03125 µg/mL	partner 0.0625 µg/mL	partner 0.125 µg/mL	partner 0.25 µg/mL	partner 0.5 µg/mL
S. aureus DSM 20231 [1], first compound 0.5 µg/mL	–	0.896	0.832	0.322	–
S. aureus DSM 20231 [1], first compound 1 µg/mL	–	0.907	0.78	0.293	–
S. aureus DSM 20231 [1], first compound 2 µg/mL	–	0.896	0.677	0.389	–
S. aureus Newman [3], first compound 0.125 µg/mL	–	0.977	0.914	–	–
S. aureus Newman [3], first compound 0.25 µg/mL	–	0.97	0.879	–	–
S. aureus Newman [3], first compound 0.5 µg/mL	–	0.964	0.914	–	–
S. pneumoniae D39V [4], first compound 1 µg/mL	0.916	0.942	0.619	0.23	0.0913
S. pneumoniae D39V [4], first compound 2 µg/mL	0.917	0.905	0.625	0.245	0.0924
S. pneumoniae D39V [4], first compound 4 µg/mL	0.93	0.966	0.643	0.256	0.0875

Settings	Bliss interaction score
B. subtilis 168 [6]	0.0472
S. aureus DSM 20231 [5]	0.0665
S. aureus Newman [7]	0.0584
S. pneumoniae D39V [8]	-0.141
